Active and inactive are the calls of the source. No cut-off for these calls is given here.
What was measured:
[1] = Metal chelating activity assessed as compound-Cu2+ complex formation at 20 uM in presence of CuCl2 after 30 mins by UV-visible spectrophotometric analysis
[2] = biological target: T1, Glycogen synthase kinase-3 beta (Homo sapiens, UniProt P49841); experiment: Inhibition of GSK-3beta (unknown origin) at 1 uM using FAM-labeled peptide as substrate preincubated for 10 mins followed by substrate addition by caliper assay relative to control
Target sequence in this assay (P49841 whole entry, looked up): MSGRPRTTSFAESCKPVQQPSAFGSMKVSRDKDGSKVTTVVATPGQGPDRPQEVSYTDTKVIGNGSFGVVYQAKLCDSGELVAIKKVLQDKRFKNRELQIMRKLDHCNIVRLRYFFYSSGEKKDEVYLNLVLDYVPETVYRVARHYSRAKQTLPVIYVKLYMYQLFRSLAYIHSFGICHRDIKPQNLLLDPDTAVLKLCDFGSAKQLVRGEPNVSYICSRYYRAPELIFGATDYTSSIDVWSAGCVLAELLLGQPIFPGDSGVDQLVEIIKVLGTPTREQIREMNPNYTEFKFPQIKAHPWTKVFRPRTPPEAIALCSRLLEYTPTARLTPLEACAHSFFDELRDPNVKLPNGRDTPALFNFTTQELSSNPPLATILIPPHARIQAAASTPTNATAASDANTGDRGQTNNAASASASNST

[3] = Metal chelating activity assessed as compound-Al3+ complex formation at 20 uM in the presence of AlCl3 after 30 mins by UV-visible spectrophotometric analysis
[4] = Metal chelating activity assessed as compound-Zn2+ complex formation at 20 uM in presence of ZnCl2 after 30 mins by UV-visible spectrophotometric analysis
[5] = biological target: T1, Glycogen synthase kinase-3 beta; experiment: Inhibition of GSK-3beta (unknown origin) using FAM-labeled peptide as substrate preincubated for 10 mins followed by substrate addition by caliper assay
Target sequence in this assay (P49841 whole entry): as the sequence (P49841 whole entry, looked up) above

[6] = biological target: T1, Glycogen synthase kinase-3 beta; experiment: Inhibition of GSK3bbeta in human SH-SY5Y cells assessed as reduction in human amyloid beta (25 to 35) peptide-induced tau hyperphosphorylation at Ser396 residue at […] preincubated for 1 hr followed by amyloid beta-stimulation and measured after 6 hrs by Western blot analysis; type: cell-based
Target sequence in this assay (P49841 whole entry, looked up): as above

[7] = Metal chelating activity assessed as compound-Ca2+ complex formation at 20 uM in the presence of CaCl2 after 30 mins by UV-visible spectrophotometric analysis
[8] = Metal chelating activity assessed as compound-Cu2+ complex formation by measuring shift in maximum absorption wavelength at 20 uM in presence of CuCl2 after 30 mins by UV-visible spectrophotometric analysis (reference value: 326 nanometer)
[9] = Metal chelating activity assessed as Na+-compound complex formation at 20 uM in the presence of NaCl after 30 mins by UV-vis spectrophotometric analysis
[10] = Metal chelating activity assessed as compound-Fe2+ complex formation at 20 uM in the presence of FeSO4 after 30 mins by UV-visible spectrophotometric analysis
[11] = Metal chelating activity assessed as K+-compound complex formation at 20 uM in the presence of KCl after 30 mins by UV-vis spectrophotometric analysis
[12] = Metal chelating activity assessed as compound-Mg2+ complex formation at 20 uM in the presence of MgCl2 after 30 mins by UV-visible spectrophotometric analysis
[13] = Metal chelating activity assessed as compound-Cu2+ complex formation by measuring shift in maximum absorption wavelength at 20 uM in presence of CuCl2 after 30 mins by UV-visible spectrophotometric analysis (reference value: 311 nanometer)
[14] = biological target: Amyloid-beta precursor protein (Homo sapiens) (UniProt P05067); experiment: Disaggregation of HFIP-pretreated human amyloid beta (1 to 42) preformed fibrils at 40 uM after 24 hrs by ThT-based fluorometric method relative to control
Amyloid-beta precursor protein (Homo sapiens), sequence (P05067 whole entry): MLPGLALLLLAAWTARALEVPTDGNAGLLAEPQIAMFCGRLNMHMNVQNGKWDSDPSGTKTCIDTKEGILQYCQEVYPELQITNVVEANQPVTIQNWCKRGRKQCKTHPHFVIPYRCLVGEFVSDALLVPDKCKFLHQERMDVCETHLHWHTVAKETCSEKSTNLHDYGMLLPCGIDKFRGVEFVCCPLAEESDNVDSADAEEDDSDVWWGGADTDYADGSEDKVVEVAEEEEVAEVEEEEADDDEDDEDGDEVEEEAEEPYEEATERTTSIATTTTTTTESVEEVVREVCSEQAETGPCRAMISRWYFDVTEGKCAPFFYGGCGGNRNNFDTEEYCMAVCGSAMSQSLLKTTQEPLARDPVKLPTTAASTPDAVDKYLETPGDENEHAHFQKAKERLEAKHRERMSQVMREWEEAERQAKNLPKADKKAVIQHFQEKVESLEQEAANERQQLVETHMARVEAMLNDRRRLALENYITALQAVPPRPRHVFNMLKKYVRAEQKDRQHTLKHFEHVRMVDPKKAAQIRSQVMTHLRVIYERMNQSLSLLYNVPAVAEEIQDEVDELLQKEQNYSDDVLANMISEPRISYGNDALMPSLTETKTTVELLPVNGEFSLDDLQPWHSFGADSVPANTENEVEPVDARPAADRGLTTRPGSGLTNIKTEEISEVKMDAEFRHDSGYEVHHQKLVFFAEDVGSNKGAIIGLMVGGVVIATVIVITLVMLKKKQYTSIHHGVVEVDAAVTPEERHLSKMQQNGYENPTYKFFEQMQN

[15] = Inhibition of Cu2+-induced HFIP pretreated human amyloid beta (1 to 42) aggregation at 40 uM measured after 24 hrs by ThT-based fluorescence assay relative to control
[16] = Metal chelating activity assessed as compound-Cu2+ complex formation by measuring blue shift in maximum absorption at 20 uM in presence of CuCl2 after 30 mins by UV-visible spectrophotometric analysis (reference value: 244 nanometer)
SH-SY5Y [17] = experiment: Neuroprotective activity against H2O2-induced oxidative damage in human SH-SY5Y cells assessed as increase in cell viability measured after 24 hrs by MTT assay; type: functional, cell-based
[18] = biological target: T1, Glycogen synthase kinase-3 beta; experiment: Inhibition of GSK3bbeta in human SH-SY5Y cells assessed as reduction in human amyloid beta (25 to 35) peptide-induced tau hyperphosphorylation at Ser396 residue at 25 uM preincubated for 1 hr followed by amyloid beta-stimulation and measured after 6 hrs by Western blot analysis relative to control; type: cell-based
Target sequence in this assay (P49841 whole entry, looked up): as the sequence (P49841 whole entry, looked up) above

[19] = Disaggregation of Cu2+ induced human HFIP-pretreated amyloid beta (1 to 42) preformed fibrils at 40 uM measured after 24 hrs by ThT-based fluorescence assay relative to control
[20] = biological target: T1, Glycogen synthase kinase-3 beta; experiment: Inhibition of GSK3bbeta in human SH-SY5Y cells assessed as reduction in human amyloid beta (25 to 35) peptide-induced tau hyperphosphorylation at Ser396 residue preincubated for 1 hr followed by amyloid beta-stimulation and measured after 6 hrs by Western blot analysis; type: cell-based
Target sequence in this assay (P49841 whole entry, looked up): as above

SH-SY5Y [21] = experiment: Neuroprotective activity against H2O2-induced oxidative damage in human SH-SY5Y cells assessed as cell viability at 10 uM measured after 24 hrs by MTT assay relative to control; type: functional; details: read-out: Activity
[22] = Antioxidant activity assessed as ABTS radical scavenging activity incubated for 6 mins; type: functional
PC-12 [23] = experiment: Neuroprotective activity against H2O2-induced oxidative damage in rat PC12 cells assessed as cell viability at 10 uM measured after 24 hrs by MTT assay relative to control; type: functional; details: PC-12, 24 h, read-out: Activity
SH-SY5Y [24] = experiment: Cytotoxicity against human SH-SY5Y cells at 2 uM in the presence of CuCl2 measured after 24 hrs by MTT assay; type: cell-based
[25] = Metal chelating activity assessed as inhibition of Cu(II)/ascorbate-induced ROS production by measuring fluorescence intensity at 100 uM measured at 20 secs interval for 1000 secs by fluorescence assay (reference value: 10 to 52)
[26] = Metal chelating activity assessed as compound-Al3+ complex formation by measuring blue shift in maximum absorption at 20 uM in the presence of AlCl3 after 30 mins by UV-visible spectrophotometric analysis (reference value: 407 nanometer)
PC-12 [27] = experiment: Cytotoxicity against rat PC12 cells measured after 24 hrs by MTT assay; type: cell-based; details: PC-12, 24 h
SH-SY5Y [28] = experiment: Cytotoxicity against human SH-SY5Y cells measured after 24 hrs by MTT assay; type: cell-based
SH-SY5Y [29] = experiment: Neuroprotective activity against Cu2+-mediated amyloid beta (1 to 42) (unknown origin)-induced cytotoxicity in human SH-SY5Y cells assessed as increase in cell viability at 2 uM measured after 24 hrs by MTT assay; type: functional, cell-based
[30] = biological target: Amyloid-beta precursor protein (Homo sapiens) (UniProt P05067); experiment: Inhibition of human HFIP-pretreated amyloid beta (1 to 42) self aggregation at 40 uM after 24 hrs by ThT-based fluorometric method relative to control
[31] = Potency index, ratio of trolox IC50 to test compound IC50 for ABTS radical scavenging activity; type: functional
SH-SY5Y [32] = experiment: Neuroprotective activity against amyloid beta (1 to 42) (unknown origin)-induced cytotoxicity in SH-SY5Y cells assessed as cell viability at 2 uM measured after 24 hrs by MTT assay (reference value: 78%); type: functional; details: Homo sapiens
[33] = Metal chelating activity assessed as compound-Cu2+ complex formation by measuring shift in maximum absorption wavelength at 20 uM in presence of CuCl2 after 30 mins by UV-visible spectrophotometric analysis (reference value: 338 nanometer)
[34] = Metal chelating activity assessed as compound-Cu2+ complex formation by measuring shift in maximum absorption wavelength at 20 uM in presence of CuCl2 after 30 mins by UV-visible spectrophotometric analysis (reference value: 327 nanometer)

Nc1ncc(-c2ccccc2)cc1NC(=O)c1ccnc(NC(=O)C2CC2)c1
Activity [1]: inactive | inhibition [2]: 98% | Activity [3]: inactive | Activity [4]: inactive | IC50 [5]: 148 nM

Nc1nccc(-c2ccccc2)c1/N=C/c1ccnc(NC(=O)C2CC2)c1
IC50 [5]: 633 nM

[Cl-].[Li+]
inhibition [6]: Active

Cc1csc(-c2cnc(N)c(/N=C/c3ccnc(NC(=O)C4CC4)c3)c2)c1
IC50 [5]: 315 nM

Nc1ncc(-c2ccc(F)cc2)cc1NC(=O)c1ccnc(NC(=O)C2CC2)c1
Activity [1]: inactive | inhibition [2]: 95% | Activity [3]: inactive | Activity [4]: inactive | IC50 [5]: 240 nM

Nc1ncc(-c2ccccc2)cc1NCc1ccnc(NC(=O)C2CC2)c1
Activity [7]: inactive | inhibition [2]: 27% | Activity [8]: 422 nm | Activity [9]: inactive | Activity [10]: inactive | Activity [11]: inactive | Activity [12]: inactive | Activity [3]: inactive | Activity [4]: inactive

Nc1ncccc1NCc1ccnc(NC(=O)C2CC2)c1
Activity [7]: inactive | inhibition [2]: 33% | Activity [9]: inactive | Activity [10]: inactive | Activity [11]: inactive | Activity [12]: inactive | Activity [13]: 402 nm | Activity [3]: inactive | Activity [4]: inactive

Nc1ncc(-c2ccc(F)cc2)cc1/N=C/c1ccnc(NC(=O)C2CC2)c1
IC50 [5]: 418 nM

Nc1nccc(-c2cccc(F)c2)c1/N=C/c1ccnc(NC(=O)C2CC2)c1
IC50 [5]: 891 nM

Cc1ccc(-c2ccnc(N)c2/N=C/c2ccnc(NC(=O)C3CC3)c2)cc1
IC50 [5]: 1250 nM

Cc1csc(-c2cnc(N)c(NC(=O)c3ccnc(NC(=O)C4CC4)c3)c2)c1
Activity [1]: inactive | inhibition [2]: 102% | Activity [3]: inactive | Activity [4]: inactive | IC50 [5]: 219 nM

Nc1nccc(-c2ccc(Cl)cc2)c1/N=C/c1ccnc(NC(=O)C2CC2)c1
IC50 [5]: > 2000 nM

Nc1ncc(-c2ccncc2)cc1/N=C/c1ccnc(NC(=O)C2CC2)c1
Activity [14]: inactive | inhibition [15]: 33.8% | Activity [16]: 241 nm | Activity [7]: inactive | Activity (SH-SY5Y [17]): Dose-dependent effect | Activity [9]: inactive | inhibition [18]: < 50% | Activity [19]: 50.9% | Activity [10]: inactive | Activity [11]: inactive | inhibition [20]: Dose-dependent effect | Activity [12]: inactive | viability at 10 µM (SH-SY5Y [21]): 92% | IC50 [22]: 3440 nM | viability at 10 µM (PC-12 [23]): 76.4% | Activity (SH-SY5Y [24]): Non-Toxic | Flu intensity [25]: 33 to 54 | Activity [26]: 378 nm | IC50 (PC-12 [27]): 161000 nM | Activity [4]: inactive | IC50 (SH-SY5Y [28]): > 200000 nM | Activity (SH-SY5Y [29]): Active | IC50 [5]: 38 nM | inhibition [30]: inactive | Ratio IC50 [31]: 2 to 4 | Activity (SH-SY5Y [32]): inactive

Nc1nccc(-c2ccc(F)cc2)c1/N=C/c1ccnc(NC(=O)C2CC2)c1
IC50 [5]: 1200 nM

Nc1ncc(-c2ccncc2)cc1NC(=O)c1ccnc(NC(=O)C2CC2)c1
Activity [1]: inactive | inhibition [2]: 99% | Activity [3]: inactive | Activity [4]: inactive | IC50 [5]: 199 nM

Cc1ccc(-c2cnc(N)c(/N=C/c3ccnc(NC(=O)C4CC4)c3)c2)cc1
IC50 [5]: 372 nM

COc1cc(/C=C/C(=O)CC(=O)/C=C/c2ccc(O)c(OC)c2)ccc1O [CURCUMIN]
Activity [14]: 43% | viability at 2 µM (SH-SY5Y [32]; read-out: Activity): 88%

Cc1c(C)c2c(c(C)c1O)CCC(C)(C(=O)O)O2 (stereo not drawn) [TROLOX]
viability at 10 µM (SH-SY5Y [21]): 90% | IC50 [22]: 14300 nM | viability at 10 µM (PC-12 [23]): 79%

Cc1ccc(-c2cnc(N)c(NC(=O)c3ccnc(NC(=O)C4CC4)c3)c2)cc1
Activity [1]: inactive | inhibition [2]: 99% | Activity [3]: inactive | Activity [4]: inactive | IC50 [5]: 127 nM

Nc1ncccc1NC(=O)c1ccnc(NC(=O)C2CC2)c1
Activity [1]: inactive | inhibition [2]: 77% | Activity [3]: inactive | Activity [4]: inactive | IC50 [5]: 629 nM

Cc1csc(-c2cnc(N)c(NCc3ccnc(NC(=O)C4CC4)c3)c2)c1
Activity [7]: inactive | inhibition [2]: 17% | Activity [33]: 440 nm | Activity [9]: inactive | Activity [10]: inactive | Activity [11]: inactive | Activity [12]: inactive | Activity [3]: inactive | Activity [4]: inactive

Oc1c(I)cc(Cl)c2cccnc12
inhibition [15]: 38.8% | Activity [19]: 34.9% | Activity (SH-SY5Y [29]): Active

Nc1ncccc1/N=C/c1ccnc(NC(=O)C2CC2)c1
Activity [14]: inactive | inhibition [15]: 24.3% | Activity [7]: inactive | Activity (SH-SY5Y [17]): Dose-dependent effect | Activity [1]: inactive | Activity [9]: inactive | inhibition [18]: < 50% | Activity [19]: 42.5% | Activity [10]: inactive | Activity [11]: inactive | inhibition [20]: Dose-dependent effect | Activity [12]: inactive | viability at 10 µM (SH-SY5Y [21]): 92.1% | IC50 [22]: 3880 nM | viability at 10 µM (PC-12 [23]): 72.6% | Activity (SH-SY5Y [24]): Non-Toxic | Flu intensity [25]: 22 to 40 | Activity [3]: inactive | IC50 (PC-12 [27]): 152000 nM | Activity [4]: inactive | IC50 (SH-SY5Y [28]): > 200000 nM | Activity (SH-SY5Y [29]): Active | IC50 [5]: 71 nM | inhibition [30]: inactive | Ratio IC50 [31]: 2 to 4 | Activity (SH-SY5Y [32]): inactive

Nc1ncc(-c2ccncc2)cc1NCc1ccnc(NC(=O)C2CC2)c1
Activity [7]: inactive | inhibition [2]: 27% | Activity [9]: inactive | Activity [10]: inactive | Activity [11]: inactive | Activity [12]: inactive | Activity [3]: inactive | Activity [4]: inactive

Cc1ccc(-c2cnc(N)c(NCc3ccnc(NC(=O)C4CC4)c3)c2)cc1
Activity [7]: inactive | inhibition [2]: 28% | Activity [9]: inactive | Activity [10]: inactive | Activity [11]: inactive | Activity [12]: inactive | Activity [34]: 422 nm | Activity [3]: inactive | Activity [4]: inactive
